Active and inactive are the calls of the source.
Experiments:
[1] = T. cruzi growth inhibition in host cells, dose response, cell-based, plate reader, dry powder, set 2 (AID 652275); type: functional
[2] = inhibitors of HIV Env-driven cell fusion, dose response, cherry-pick (AID 652057); type: functional, cell-based
[3] = off-target signal loss in HeLa-CEM21 co-culture – HeLa F-luc CTL cells, cherry-picked, counter-screen for HIV-1 Env fusion inhibitor project, dose response (AID 652040); type: functional, cell-based;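 also: potency for signal decrease marking cytotoxic or nonspecific inhibition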
[4] = ZM109 Env clade C HIV-1 fusion inhibitors, dose response, HeLa effector, CEM target cells, luciferase, cherry-pick (AID 652058); type: functional, cell-based
[5] = inhibitors of clade B AD8 Env fusion, dose response, cell-based, cherry-pick (AID 652062); type: functional;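 also: luciferase signal from cell-cell fusion driven by HIV-1 clade B AD8 Env; potency is for inhibitors of fusion seen as a drop in luminescence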

SMILES	AC50 [1]	AC50 [2]	AC50 [3]	AC50 [4]	AC50 [5]
CN(C)C(=O)c1cccc(-c2ccc([C@@H]3[C@H](CO)N4CCCCN(C(=O)C5CCC5)C[C@@H]34)cc2)c1	4830 nM (active)				
CCN1C(=O)[C@H]2[C@@H](c3ccc(C)cc3)N3C(=O)N(c4ccc(C(F)(F)F)cc4)C(=O)[C@@]3(CC(C)C)[C@H]2C1=O		2000 nM (active)	2350 nM (active)	3630 nM (active)	4990 nM (active)
CC(C)(C)[S+]([O-])N1Cc2cc(C(=O)NCc3ccc4c(c3)OCO4)nc(-c3cccc(-c4cccc(F)c4)c3)c2[C@@H]1CCO (stereo partly specified)	1740 nM (active)				
